Measured values from patent US20090318366A1, “CHOLESTEROL LOWERING PROTEIN HYDROLYSATES” (DSM IP ASSETS B.V., priority 2006, published 2009).
Marks after values point to notes of the source that are not given here.

Assays:
Fisher F344 rats [1] = assay: Hypocholesterolemic effects of five small peptides in Fisher F344 rats, hypercholesterolemic rat model (Example 9); assay type: in vivo; settings: 100 mg/kg BW oral, 7 days, mean ± SD, n = 9-10; for HDL cholesterol (plasma): control 0.14 ± 0.08; for Total cholesterol (plasma): control 10.1 ± 2.2; for non HDL cholesterol (plasma): total minus HDL cholesterol, control 10.0 ± 2.2
Text: In short eighty male Fisher rats (F344) from Charles River (Sulzfeld, Germany), weighing 65-96 g were housed individually with free access to water and feed, with an alternating 12-hour light-dark cycle. The animals were fed a rodent atherogenic diet high in cholesterol and fat for the 2 weeks preceding the treatment. The macro-nutrient composition of the diet was as follows (g/100 g anhydrous mix): protein 20.8; fiber 4.2; fat 15; carbohydrate 48. The diet also contained 1.25 wt % cholesterol, 0.5 wt % sodium cholate and a standard vitamin and mineral mix, prepared according to rat nutritional requirements. The main fats consisted of cacoa butter (7.5 wt %) and soja oil (4.35 wt %). After 2 weeks of adaptation to the diet the rats were randomized according to body weight into […] of 10 animals. The […] were treated orally every morning for 7 days with either water (control group) or one of the following peptides: RPRPS, RGRPS, HPHPH, RPRP, KPKPS, at a dose of 100 mg/kg body weight (BW) while continuing the aetherogenic diet. There was no difference in feed consumption over the whole experiment. The day before the last administration, all animals were dosed orally in the evening and deprived of food overnight (14 hours) but allowed free access to water. At day 7 the fasted rats were treated again orally in the morning and after two hours the animals were sacrificed by withdrawing blood from the vena Cava under Isoflurane anesthesia. Blood was collected into tubes containing EDTA as an anticoagulant. Plasma was prepared from the blood by immediate centrifugation at 1600 g for 10 minutes at 4° C. Assays of plasma cholesterol and HDL-cholesterol (precipitation method) were determined enzymatically on a Hitachi 912 automatic analyzer (Roche Diagnostica, Switzerland). Non-HDL cholesterol was calculated by difference between total cholesterol and HDL cholesterol. One animal in the control group was excluded from the analysis due to hemolytic plasma which interfered with the measurements. All data are expressed as means±standard deviation (SD) for animals in each diet group, with n being the number of rats. Statistical significance of the mean differences between dietary groups was tested by one-way analysis of variance (ANOVA). If significant differences were found, the Dunnett's test for multiple comparison was used to compare each group to the control group. P values less than 0.05 were considered significant (Table 3).

[2] = In vivo efficacy of peptide RPRPRPSF with and without beta-sitosterol (protocol of Nagaoka et al.); settings: in combination with beta-sitosterol
Text: Peptide RPRPRPSF is chemically synthesized and beta-sitosterol is obtained from Sigma. Both compounds, apart and in combination, are subjected to a testing protocol which is essentially similar to the in vivo testing protocol described by Nagaoka et al., BBRC 281 (2001) 11-17.

Fisher F344 rats [3] = assay: Hypocholesterolemic effects of peptides in Fisher F344 rats on atherogenic diet (Example 8); assay type: in vivo, rat; settings: 7 days; for HDL cholesterol (plasma) / Total cholesterol (plasma) / non HDL cholesterol (plasma): mean ± SD, n = 10; for HDL cholesterol (plasma): control 0.22 ± 0.12; for Total cholesterol (plasma): control 12.8 ± 3.1; for non HDL cholesterol (plasma): total minus HDL cholesterol, control 12.5 ± 3.1
Text: Forty male Fisher rats (F344) from Charles River (Sulzfeld, Germany), weighing 70-85 g were housed individually with free access to water and feed, with an alternating 12-hour light-dark cycle. The animals were fed a rodent atherogenic diet high in cholesterol and fat for the 2 weeks preceding the treatment. The macro-nutrient composition of the diet was as follows (g/100 g anhydrous mix): protein 20.8; fiber 4.2; fat 15; carbohydrate 48. The diet also contained 1.25 wt % cholesterol, 0.5 wt % sodium cholate and a standard vitamin and mineral mix, prepared according to rat nutritional requirements. The main fats consisted of cacoa butter (7.5 wt %) and soja oil (4.35 wt %). After 2 weeks of adaptation to the diet the rats were randomized according to body weight into four experimental groups of 10 animals. The four groups were treated orally every morning for 7 days with either water (control group) or octapeptide (RPRPRPSF) at two doses of 200 and 800 mg/kg body weight (BW) respectively or soy protein (SUPRO 760) at 800 mg/kg BW while continuing the aetherogenic diet. There was no difference in feed consumption over the whole experiment. The day before the last administration, all animals were dosed orally in the evening and deprived of food overnight (14 hours) but allowed free access to water. At day 7 the fasted rats were treated again orally in the morning and after two hours the animals were sacrificed by withdrawing blood from the vena Cava under Isoflurane anesthesia. Blood was collected into tubes containing EDTA as an anticoagulant. Plasma was prepared from the blood by immediate centrifugation at 1600 g for 10 minutes at 4° C. Assays of plasma cholesterol and HDL-cholesterol (precipitation method) were determined enzymatically on a Hitachi 912 automatic analyzer (Roche Diagnostica, Switzerland). Non-HDL cholesterol was calculated by difference between total cholesterol and HDL cholesterol. All data are expressed as means±standard deviation (SD) for animals in each diet group, with n being the number of rats. Statistical significance of the mean differences between dietary groups was tested by one-way analysis of variance (ANOVA). If significant differences were found, the Dunnett's test for multiple comparison was used to compare each group to the control group. P values less than 0.05 were considered significant (Table 2).

[4] = Solubility of cholesterol in mixed micelles (intramicellar cholesterol after 24 h at 37° C., centrifugation and filtration); settings: 10 mg/ml test substance, 0.5 mM cholesterol, 6.6 mM taurocholate, 2.4 mM lecithin, pH 7.4, control 0.494
Procedure: The mixed micelles were prepared according to the method described by Nagaoka et al. (Biochemical and Biophysical Research Communications 281: 11-17 (2001)) by sonication of a 15 mM phosphate buffer saline (PBS) solution containing 6.6 mM taurocholate, 2.4 mM lecithin, 0.5 mM cholesterol and either 10 mg/ml of octapeptide (RPRPRPSF, MW1012) or 10 mg/ml soy protein (SUPRO 760, Solea Belgium) at pH 7.4. The lipids, phospholipids and cholesterol were dissolved in methanol and dried before adding the PBS buffer and the peptides or the soy protein at a final concentration of 10 mg/ml. The resulting micellar solution was kept at 37° C. for 24 hours and centrifuged at 1000×g for 10 min. In order to separate any precipitated cholesterol from the intramicellar cholesterol the solution was then filtered through a 0.22 μm MILLEX-GP filter (Millipore, Bedford, Mass., USA). The intramicellar concentration of cholesterol was then determined enzymatically using a cholesterol kit and a Hitachi 912 automatic analyzer from Roche Diagnostica, Switzerland.

[5] = 200 and 800 mg/Kg BW oral, p < 0.05

Substance	HDL cholesterol (plasma) (Fisher F344 rats [1])	Total cholesterol (plasma) (Fisher F344 rats [1])	non HDL cholesterol (plasma) (Fisher F344 rats [1])	other results
HPHPH	0.29 ± 0.13^b mmol/L	3.4 ± 1.2^b mmol/L	3.1 ± 1.3^b mmol/L	
KPKPS	0.29 ± 0.11^b mmol/L	3.0 ± 1.0^b mmol/L	2.7 ± 1.0^b mmol/L	
RGRPS	0.37 ± 0.14^b mmol/L	3.2 ± 0.4^b mmol/L	2.9 ± 0.4^b mmol/L	
RPRP	0.33 ± 0.11^b mmol/L	2.9 ± 0.4^b mmol/L	2.6 ± 0.4^b mmol/L	
RPRPRPSF [synthetic octapeptide R-P-R-P-R-P-S-F, MW1012]				Effect on cholesterol in vivo [2]: further enhanced; HDL cholesterol (plasma) (Fisher F344 rats [3]; 200 mg/Kg BW oral): 0.54 ± 0.20^b mmol/L; Total cholesterol (plasma) (Fisher F344 rats [3]; 200 mg/Kg BW oral): 4.1 ± 1.2^b mmol/L; non HDL cholesterol (plasma) (Fisher F344 rats [3]; 200 mg/Kg BW oral): 3.6 ± 1.2^b mmol/L; HDL cholesterol (plasma) (Fisher F344 rats [3]; 800 mg/Kg BW oral): 0.51 ± 0.17^b mmol/L; Total cholesterol (plasma) (Fisher F344 rats [3]; 800 mg/Kg BW oral): 3.4 ± 0.7^b mmol/L; non HDL cholesterol (plasma) (Fisher F344 rats [3]; 800 mg/Kg BW oral): 2.9 ± 0.7^b mmol/L; Non-HDL cholesterol (VLDL-cholesterol+LDL-cholesterol) levels as compared to the control group (Fisher F344 rats [3]; [5]): significantly lowered; Plasma total cholesterol levels as compared to the control group (Fisher F344 rats [3]; [5]): significantly lowered; Ratio of non-HDL cholesterol to HDL-cholesterol (Fisher F344 rats [3]; oral): positively affected; Plasma HDL-cholesterol compared to the control group (Fisher F344 rats [3]; oral, p < 0.05): significantly increased; Cholesterol content of the micellar solution ([4]; listed as Octapeptide): 0.153 mmol/L; Cholesterol content of the micellar solution ([4]; listed as octapeptide (RPRPRPSF)): drastically decreased
RPRPS	0.29 ± 0.06^b mmol/L	3.6 ± 1.1^b mmol/L	3.3 ± 1.2^b mmol/L	
